pIC50: −log10 of the molar value. Where “and” joins values, the source holds several entries; their conditions need not be identical. Identical values can stand only once. Like-named read-outs stand apart in the source and are kept apart here.
What was measured:
PI3K-γ = PI3K-γ (Homo sapiens, UniProt P48736); assay: PI3K-gamma fluorescence polarization assay; settings: read-out: IC50 PI3Kγ
[1] = tested on: human breast MDA-MB-361 tumor cell line; assay: In vitro cell culture growth assay (MTS), MDA-MB-361; assay type: cell-based; settings: Homo sapiens, MTS cell growth assay, three days after drug treatment, read-out: IC50 MDA-MB-361
PI3K-α = PI3K-α (Homo sapiens, UniProt P42336); assay: PI3K-alpha fluorescence polarization assay; settings: read-out: IC50 PI3Kα
[2] = tested on: human prostate PC3-mm2 tumor cell line; assay: In vitro cell culture growth assay (MTS), PC3-mm2; assay type: cell-based; settings: Homo sapiens, PC3MM2, 72 h, MTS cell growth assay, three days after drug treatment, read-out: IC50 PC3-mm2
Human mTOR (FLAG-TOR) = Human mTOR (FLAG-TOR) (Homo sapiens, UniProt P42345); assay: mTOR kinase assay (DELFIA format, purified enzyme); assay type: biochemical
Chain of Human mTOR (FLAG-TOR) (P42345 1360-2549 limits assumed): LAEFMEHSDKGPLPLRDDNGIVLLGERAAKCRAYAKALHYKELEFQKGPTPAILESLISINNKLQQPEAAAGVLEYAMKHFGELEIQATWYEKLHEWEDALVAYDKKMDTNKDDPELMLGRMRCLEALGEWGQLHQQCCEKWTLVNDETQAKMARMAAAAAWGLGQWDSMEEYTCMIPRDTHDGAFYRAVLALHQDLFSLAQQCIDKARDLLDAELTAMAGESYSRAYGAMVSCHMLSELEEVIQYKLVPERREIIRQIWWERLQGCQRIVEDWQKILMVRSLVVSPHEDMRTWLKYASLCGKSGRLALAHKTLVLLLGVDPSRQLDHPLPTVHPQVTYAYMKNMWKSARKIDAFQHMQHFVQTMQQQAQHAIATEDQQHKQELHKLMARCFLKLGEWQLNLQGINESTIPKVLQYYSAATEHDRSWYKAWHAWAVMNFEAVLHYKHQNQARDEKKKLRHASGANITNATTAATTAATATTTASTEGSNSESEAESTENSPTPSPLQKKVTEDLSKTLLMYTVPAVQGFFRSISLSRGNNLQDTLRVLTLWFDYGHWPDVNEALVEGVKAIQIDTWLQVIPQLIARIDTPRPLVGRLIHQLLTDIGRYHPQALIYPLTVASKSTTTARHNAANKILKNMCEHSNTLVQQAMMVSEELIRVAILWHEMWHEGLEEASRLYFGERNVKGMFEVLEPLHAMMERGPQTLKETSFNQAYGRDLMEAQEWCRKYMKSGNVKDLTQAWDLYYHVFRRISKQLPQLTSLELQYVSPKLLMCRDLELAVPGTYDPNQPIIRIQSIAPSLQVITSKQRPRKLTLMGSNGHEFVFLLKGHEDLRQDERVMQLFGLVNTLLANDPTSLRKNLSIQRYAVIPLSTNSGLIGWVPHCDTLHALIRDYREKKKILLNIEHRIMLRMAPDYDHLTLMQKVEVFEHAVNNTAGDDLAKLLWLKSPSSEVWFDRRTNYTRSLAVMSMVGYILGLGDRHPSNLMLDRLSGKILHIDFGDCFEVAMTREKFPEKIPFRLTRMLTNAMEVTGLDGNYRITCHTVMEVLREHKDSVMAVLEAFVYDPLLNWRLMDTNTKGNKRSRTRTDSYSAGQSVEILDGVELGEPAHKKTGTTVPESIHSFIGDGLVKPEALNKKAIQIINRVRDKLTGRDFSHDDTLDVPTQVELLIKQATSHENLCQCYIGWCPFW

Chain of PI3K-α (P42336 whole entry, species assumed): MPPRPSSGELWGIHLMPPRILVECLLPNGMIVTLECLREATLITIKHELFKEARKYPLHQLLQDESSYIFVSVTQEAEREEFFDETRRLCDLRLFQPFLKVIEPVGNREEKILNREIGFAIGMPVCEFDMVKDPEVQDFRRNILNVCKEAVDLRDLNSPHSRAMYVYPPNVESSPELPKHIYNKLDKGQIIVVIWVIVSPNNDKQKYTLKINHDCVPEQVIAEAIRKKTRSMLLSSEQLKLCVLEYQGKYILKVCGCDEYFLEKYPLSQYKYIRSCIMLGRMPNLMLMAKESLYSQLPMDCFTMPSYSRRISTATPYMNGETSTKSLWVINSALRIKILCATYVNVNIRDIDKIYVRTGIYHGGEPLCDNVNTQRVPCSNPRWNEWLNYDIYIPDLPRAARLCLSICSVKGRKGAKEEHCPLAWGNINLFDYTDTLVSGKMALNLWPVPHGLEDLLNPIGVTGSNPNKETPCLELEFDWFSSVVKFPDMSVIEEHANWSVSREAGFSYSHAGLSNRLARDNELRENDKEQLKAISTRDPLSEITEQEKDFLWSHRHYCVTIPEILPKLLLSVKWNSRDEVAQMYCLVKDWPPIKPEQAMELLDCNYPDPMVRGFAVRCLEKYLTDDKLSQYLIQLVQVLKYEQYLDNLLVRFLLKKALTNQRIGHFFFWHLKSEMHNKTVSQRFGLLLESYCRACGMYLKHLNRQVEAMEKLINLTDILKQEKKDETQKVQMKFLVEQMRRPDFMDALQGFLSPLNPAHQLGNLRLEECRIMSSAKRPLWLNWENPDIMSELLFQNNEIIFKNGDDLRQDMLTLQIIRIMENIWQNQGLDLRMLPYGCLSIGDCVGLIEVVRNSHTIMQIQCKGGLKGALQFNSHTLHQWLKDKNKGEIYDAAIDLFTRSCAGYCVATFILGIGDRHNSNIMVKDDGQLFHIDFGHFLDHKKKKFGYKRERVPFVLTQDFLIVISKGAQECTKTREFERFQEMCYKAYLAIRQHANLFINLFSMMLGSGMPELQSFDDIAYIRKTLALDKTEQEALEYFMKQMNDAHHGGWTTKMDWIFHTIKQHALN
Chain of PI3K-α (P27986 whole entry partner, species assumed): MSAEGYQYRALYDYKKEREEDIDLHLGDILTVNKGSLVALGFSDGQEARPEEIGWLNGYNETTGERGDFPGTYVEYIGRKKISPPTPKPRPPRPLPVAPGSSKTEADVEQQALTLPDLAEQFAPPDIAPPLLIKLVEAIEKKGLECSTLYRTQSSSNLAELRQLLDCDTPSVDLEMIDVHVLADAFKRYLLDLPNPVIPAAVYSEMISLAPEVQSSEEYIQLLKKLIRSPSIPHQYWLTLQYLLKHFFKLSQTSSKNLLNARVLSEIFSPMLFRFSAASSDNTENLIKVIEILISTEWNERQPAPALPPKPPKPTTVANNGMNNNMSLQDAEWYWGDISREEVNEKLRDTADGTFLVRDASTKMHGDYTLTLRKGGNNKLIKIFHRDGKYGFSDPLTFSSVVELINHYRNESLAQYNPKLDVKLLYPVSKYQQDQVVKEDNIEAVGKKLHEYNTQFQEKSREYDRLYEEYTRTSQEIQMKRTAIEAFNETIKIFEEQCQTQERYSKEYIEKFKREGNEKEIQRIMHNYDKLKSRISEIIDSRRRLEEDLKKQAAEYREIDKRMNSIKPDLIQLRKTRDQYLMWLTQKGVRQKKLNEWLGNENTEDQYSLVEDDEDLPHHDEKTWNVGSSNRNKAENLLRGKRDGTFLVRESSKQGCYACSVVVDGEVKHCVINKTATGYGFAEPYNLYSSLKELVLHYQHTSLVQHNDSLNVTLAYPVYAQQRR
Chain of PI3K-γ (P48736 whole entry, species assumed): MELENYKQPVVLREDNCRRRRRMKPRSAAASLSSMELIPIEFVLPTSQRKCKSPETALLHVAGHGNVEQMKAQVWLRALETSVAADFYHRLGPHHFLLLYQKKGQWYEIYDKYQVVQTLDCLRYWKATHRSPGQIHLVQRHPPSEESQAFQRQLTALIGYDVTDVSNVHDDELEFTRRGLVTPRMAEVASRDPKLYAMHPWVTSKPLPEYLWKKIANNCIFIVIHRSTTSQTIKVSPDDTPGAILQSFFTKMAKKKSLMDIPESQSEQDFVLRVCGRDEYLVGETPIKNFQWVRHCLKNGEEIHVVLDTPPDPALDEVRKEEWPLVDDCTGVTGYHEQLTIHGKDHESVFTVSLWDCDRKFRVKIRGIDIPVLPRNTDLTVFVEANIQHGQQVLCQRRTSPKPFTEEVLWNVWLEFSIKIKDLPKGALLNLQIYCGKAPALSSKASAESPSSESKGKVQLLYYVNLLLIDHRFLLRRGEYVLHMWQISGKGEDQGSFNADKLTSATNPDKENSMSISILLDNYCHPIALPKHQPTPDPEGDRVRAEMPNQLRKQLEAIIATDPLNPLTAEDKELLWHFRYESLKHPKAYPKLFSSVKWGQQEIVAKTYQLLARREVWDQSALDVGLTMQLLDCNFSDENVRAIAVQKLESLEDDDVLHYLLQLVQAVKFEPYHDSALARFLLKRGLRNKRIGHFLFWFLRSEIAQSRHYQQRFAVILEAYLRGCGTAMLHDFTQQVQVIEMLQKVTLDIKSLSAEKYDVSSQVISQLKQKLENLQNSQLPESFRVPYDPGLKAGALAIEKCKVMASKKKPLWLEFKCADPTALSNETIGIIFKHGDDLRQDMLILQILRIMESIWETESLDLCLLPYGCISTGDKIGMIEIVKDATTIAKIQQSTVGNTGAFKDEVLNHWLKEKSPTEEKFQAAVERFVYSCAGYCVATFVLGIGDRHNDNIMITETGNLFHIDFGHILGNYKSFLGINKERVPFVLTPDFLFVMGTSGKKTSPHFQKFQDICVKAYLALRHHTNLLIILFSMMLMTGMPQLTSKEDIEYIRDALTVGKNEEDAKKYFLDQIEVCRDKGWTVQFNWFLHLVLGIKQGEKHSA

| Structure (SMILES) | pIC50 (PI3K-γ) | pIC50 (PI3K-α) | pIC50 ([2]; PC3-mm2 cells) | pIC50 [2] | pIC50 (Human mTOR (FLAG-TOR); read-out: IC50 mTOR) | pIC50 ([1]; MDA-MB-361, 72 h) | further results |
| --- | --- | --- | --- | --- | --- | --- | --- |
| CN(C)CCN(C)C(=O)c1ccc(NC(=O)Nc2ccc(-c3nc(C4=CCOCC4)nc(N4CCOCC4)n3)cc2)cc1 [Example 240, 4-[({4-[4-(3,6-dihydro-2H-pyran-4-yl)-6-morpholin-4-yl-1,3,5-triazin-2-yl]phenyl}carbamoyl)amino]-N-[2-(dimethylamino)ethyl]-N-methylbenzamide] | 8.22 | 9.00 | 7.92 | 7.92 | 8.80 | – | pIC50 (PI3K-γ; listed as 506): 8.15; pIC50 ([1]; 72 h, MDA-MB-361 cells): > 7.66; pIC50 (PI3K-α; listed as 506): 9.52 |
| CCCCc1nc(-c2ccc(NC(=O)Nc3ccc(C(=O)N4CCC(N(C)C)CC4)cc3)cc2)nc(N2CCOCC2)n1 [Example 241, 1-[4-(4-butyl-6-morpholin-4-yl-1,3,5-triazin-2-yl)phenyl]-3-(4-{[4-(dimethylamino)piperidin-1-yl]carbonyl}phenyl)urea] | 7.64 | 8.22 | – | 6.87 | 8.05 | 7.62 | – |
| CCc1nc(-c2ccc(NC(=O)Nc3ccc(C(=O)N(C)CCN(C)C)cc3)cc2)nc(N2CCOCC2)n1 [Example 242, N-[2-(dimethylamino)ethyl]-4-({[4-(4-ethyl-6-morpholin-4-yl-1,3,5-triazin-2-yl)phenyl]carbamoyl}amino)-N-methylbenzamide] | 7.62 | 8.70 | – | 7.31 | 8.15 | 7.96 | – |
| C=Cc1ccc(NC(=O)Nc2ccc(-c3nc(N4CCOCC4)nc(N4C5CCC4COC5)n3)cc2)cc1 [Example 249, 1-(4-ethenylphenyl)-3-{4-[4-morpholin-4-yl-6-(3-oxa-8-azabicyclo[3.2.1]oct-8-yl)-1,3,5-triazin-2-yl]phenyl}urea] | 6.67 | 7.60 | 6.85 | 6.85 | 8.70 and 8.60 | 7.04 | pIC50 (PI3K-γ; listed as 726): 6.66 |
| CN1CCN(Cc2ccc(NC(=O)Nc3ccc(-c4nc(N5CCOCC5)nc(N5C6CCC5COC6)n4)cc3)cc2)CC1 [Example 250, 1-{4-[(4-methylpiperazin-1-yl)methyl]phenyl}-3-{4-[4-morpholin-4-yl-6-(3-oxa-8-azabicyclo[3.2.1]oct-8-yl)-1,3,5-triazin-2-yl]phenyl}urea] | 6.72 | 7.68 | 7.51 | 7.51 | – | 7.85 | pIC50 (PI3K-γ; listed as 727): 6.72; pIC50 ([1]; MDA-MB-361, 72 h, MDA-MB-361 cells): 7.85; pIC50 (Human mTOR (FLAG-TOR); IC50 mTOR): 9.05 and 9.09 |
| CCCCc1nc(-c2ccc(NC(=O)Nc3ccc(CNCCN(C)C)cc3)cc2)nc(N2CCOCC2)n1 [Example 252, 1-[4-(4-butyl-6-morpholin-4-yl-1,3,5-triazin-2-yl)phenyl]-3-[4-({[2-(dimethylamino)ethyl]amino}methyl)phenyl]urea] | 6.74 | 7.66 | – | 6.13 | 7.74 | 6.66 | – |
| CCCCc1nc(-c2ccc(NC(=O)Nc3ccc(C(=O)Nc4ccc(N5CCN(C)CC5)cc4)cc3)cc2)nc(N2CCOCC2)n1 [Example 253, 4-({[4-(4-butyl-6-morpholin-4-yl-1,3,5-triazin-2-yl)phenyl]carbamoyl}amino)-N-[4-(4-methylpiperazin-1-yl)phenyl]benzamide] | 6.57 | 8.10 | – | 6.24 | 8.05 | 7.92 | – |
| CCCCc1nc(-c2ccc(NC(=O)Nc3ccc(C=O)cc3)cc2)nc(N2CCOCC2)n1 [Example 255, 1-[4-(4-butyl-6-morpholin-4-yl-1,3,5-triazin-2-yl)phenyl]-3-(4-formylphenyl)urea] | 7.07 | 7.32 | – | 6.48 | 7.80 | 6.76 | – |
| CN(C)CCOc1ccc(NC(=O)Nc2ccc(-c3nc(N4CCOCC4)nc(N4C5CCC4COC5)n3)cc2)cc1 [Example 266, 1-{4-[2-(dimethylamino)ethoxy]phenyl}-3-{4-[4-morpholin-4-yl-6-(3-oxa-8-azabicyclo[3.2.1]oct-8-yl)-1,3,5-triazin-2-yl]phenyl}urea] | 7.03 | 7.80 | > 7.51 | – | 8.77 and 8.73 | – | pIC50 (PI3K-γ; listed as 729): 7.00; pIC50 ([1]; 72 h, MDA-MB-361 cells): > 7.51; pIC50 (PI3K-α; listed as 729): 7.84 |
| O=C(Nc1ccncc1)Nc1ccc(-c2nc(CCC3OCCCO3)nc(N3CCOCC3)n2)cc1 [Example 267, 1-(4-{4-[2-(1,3-dioxan-2-yl)ethyl]-6-morpholin-4-yl-1,3,5-triazin-2-yl}phenyl)-3-pyridin-4-ylurea] | 7.24 | 7.77 | 6.70 | 6.70 | 8.46 and 8.37 | 7.03 | pIC50 (PI3K-γ; listed as 730): 7.19; pIC50 (PI3K-α; listed as 730): 7.81 |
| CCCCc1nc(-c2ccc(NC(=O)Nc3ccc(C(=O)N4CCC(Cc5ccccc5)CC4)cc3)cc2)nc(N2CCOCC2)n1 [Example 270, 1-{4-[(4-benzylpiperidin-1-yl)carbonyl]phenyl}-3-[4-(4-butyl-6-morpholin-4-yl-1,3,5-triazin-2-yl)phenyl]urea] | 6.50 | 7.17 | – | 6.02 | 6.80 | 6.40 | – |
| CCc1nc(-c2ccc(NC(=O)Nc3ccc(C(=O)NC4CCN(C)CC4)cc3)cc2)nc(N2CCOCC2)n1 [Example 271, 4-({[4-(4-ethyl-6-morpholin-4-yl-1,3,5-triazin-2-yl)phenyl]carbamoyl}amino)-N-(1-methylpiperidin-4-yl)benzamide] | 7.64 | 8.70 | – | 6.89 | 7.89 | 7.17 | – |
| CCCCc1nc(-c2ccc(NC(=O)Nc3ccc(C(=O)NC4CCN(C)CC4)cc3)cc2)nc(N2CCOCC2)n1 [Example 272, 4-({[4-(4-butyl-6-morpholin-4-yl-1,3,5-triazin-2-yl)phenyl]carbamoyl}amino)-N-(1-methylpiperidin-4-yl)benzamide] | 7.27 | 8.30 | – | 6.47 | 7.52 | 7.15 | – |
| O=C(Nc1ccncc1)Nc1ccc(-c2nc(N3CCOCC3)nc(N3C4COCC3C(O)C4)n2)cc1 (stereo not drawn) [Example 273, 1-{4-[4-(6-hydroxy-3-oxa-8-azabicyclo[3.2.1]oct-8-yl)-6-morpholin-4-yl-1,3,5-triazin-2-yl]phenyl}-3-pyridin-4-ylurea] | 7.48 | 8.40 | – | 7.10 | 9.10 | 7.49 | – |
| CN(C)CCCc1nc(-c2ccc(NC(=O)Nc3ccncc3)cc2)nc(N2CCOCC2)n1 [Example 274, 1-(4-{4-[3-(dimethylamino)propyl]-6-morpholin-4-yl-1,3,5-triazin-2-yl}phenyl)-3-pyridin-4-ylurea] | 6.21 | 7.47 | 5.83 | 5.83 | 7.23 | 6.00 | pIC50 (PI3K-γ; listed as 731): 6.38; pIC50 (PI3K-α; listed as 731): 7.48 |
| CC(C)NCCCc1nc(-c2ccc(NC(=O)Nc3ccncc3)cc2)nc(N2CCOCC2)n1 [Example 275, 1-[4-(4-{3-[(1-methylethyl)amino]propyl}-6-morpholin-4-yl-1,3,5-triazin-2-yl)phenyl]-3-pyridin-4-ylurea] | 6.15 | 7.34 | 5.37 | 5.37 | 7.15 and 7.16 | 5.51 | pIC50 (PI3K-γ; listed as 732): 6.32; pIC50 (PI3K-α; listed as 732): 7.36 |
